The values that follow come from patent publication US20250177363A1, “SUBSTITUTED IMIDAZOPYRIDINYL COMPOUNDS USEFUL AS INHIBITORS OF TLR9” (Bristol-Myers Squibb Company, priority 2022, published 2025).

The term IC50 denotes the concentration that gives 50% inhibition. Low readings indicate higher potency, high ones lower potency.

Common to all, as to type: cell-based
The target of one assay is T1, human TLR9 (Homo sapiens, UniProt Q9NR96).
T1 construct: host or cells: HEK-Blue cells
T1 sequence (Q9NR96 26-1032): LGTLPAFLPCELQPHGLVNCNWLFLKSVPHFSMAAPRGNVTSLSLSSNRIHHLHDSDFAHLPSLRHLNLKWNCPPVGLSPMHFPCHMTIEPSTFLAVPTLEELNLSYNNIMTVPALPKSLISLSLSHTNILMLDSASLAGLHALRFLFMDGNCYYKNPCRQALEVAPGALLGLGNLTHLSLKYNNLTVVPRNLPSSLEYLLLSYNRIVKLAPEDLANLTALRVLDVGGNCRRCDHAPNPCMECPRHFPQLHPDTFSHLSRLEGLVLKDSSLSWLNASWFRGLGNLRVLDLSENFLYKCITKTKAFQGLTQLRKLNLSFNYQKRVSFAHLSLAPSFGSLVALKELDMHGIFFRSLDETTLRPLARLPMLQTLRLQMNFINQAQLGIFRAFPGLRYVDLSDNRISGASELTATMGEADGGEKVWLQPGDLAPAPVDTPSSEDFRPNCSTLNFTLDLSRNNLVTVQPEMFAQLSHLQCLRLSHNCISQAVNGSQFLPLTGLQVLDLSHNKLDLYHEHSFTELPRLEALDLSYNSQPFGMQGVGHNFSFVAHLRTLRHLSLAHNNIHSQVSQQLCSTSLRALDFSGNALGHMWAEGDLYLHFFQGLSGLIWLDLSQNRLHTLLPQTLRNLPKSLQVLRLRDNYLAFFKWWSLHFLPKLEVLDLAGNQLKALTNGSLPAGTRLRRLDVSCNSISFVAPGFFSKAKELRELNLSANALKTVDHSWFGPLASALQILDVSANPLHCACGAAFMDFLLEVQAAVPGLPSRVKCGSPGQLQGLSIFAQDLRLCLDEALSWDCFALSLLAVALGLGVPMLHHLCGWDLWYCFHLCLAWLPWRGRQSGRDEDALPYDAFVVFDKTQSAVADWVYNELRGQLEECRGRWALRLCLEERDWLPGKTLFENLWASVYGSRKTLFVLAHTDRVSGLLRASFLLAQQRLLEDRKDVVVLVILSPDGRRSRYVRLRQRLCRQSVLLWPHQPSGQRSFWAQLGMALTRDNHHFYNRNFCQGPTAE
In words: TLR9 inhibition reporter assay (HEK-Blue, SEAP). Conditions: HEK-Blue cells overexpressing human TLR9, ligand ODN2006 200 nM, 22 hour incubation. In short, it runs like this:
(§1)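 HEK-Blue cells expressing human TLR7, TLR8 or TLR9 with NF-κB/AP-1-driven SEAP reporter; compounds 0.85 nM–50 μM, pre-treated 60 min. Stimulation: gardiquimod 2.5 μM (TLR7), R848 14.25 μM (TLR8), ODN2006 200 nM (TLR9); SEAP read after 22 h at 37 °C. Percent inhibition normalized between agonist+DMSO and known-inhibitor wells.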
In general terms: A reporter such as luciferase makes a cellular process visible.

A further assay addresses T2, human TLR7 (Homo sapiens, UniProt Q9NYK1).
T2 construct: host or cells: HEK-Blue cells
T2 sequence (Q9NYK1 27-1049): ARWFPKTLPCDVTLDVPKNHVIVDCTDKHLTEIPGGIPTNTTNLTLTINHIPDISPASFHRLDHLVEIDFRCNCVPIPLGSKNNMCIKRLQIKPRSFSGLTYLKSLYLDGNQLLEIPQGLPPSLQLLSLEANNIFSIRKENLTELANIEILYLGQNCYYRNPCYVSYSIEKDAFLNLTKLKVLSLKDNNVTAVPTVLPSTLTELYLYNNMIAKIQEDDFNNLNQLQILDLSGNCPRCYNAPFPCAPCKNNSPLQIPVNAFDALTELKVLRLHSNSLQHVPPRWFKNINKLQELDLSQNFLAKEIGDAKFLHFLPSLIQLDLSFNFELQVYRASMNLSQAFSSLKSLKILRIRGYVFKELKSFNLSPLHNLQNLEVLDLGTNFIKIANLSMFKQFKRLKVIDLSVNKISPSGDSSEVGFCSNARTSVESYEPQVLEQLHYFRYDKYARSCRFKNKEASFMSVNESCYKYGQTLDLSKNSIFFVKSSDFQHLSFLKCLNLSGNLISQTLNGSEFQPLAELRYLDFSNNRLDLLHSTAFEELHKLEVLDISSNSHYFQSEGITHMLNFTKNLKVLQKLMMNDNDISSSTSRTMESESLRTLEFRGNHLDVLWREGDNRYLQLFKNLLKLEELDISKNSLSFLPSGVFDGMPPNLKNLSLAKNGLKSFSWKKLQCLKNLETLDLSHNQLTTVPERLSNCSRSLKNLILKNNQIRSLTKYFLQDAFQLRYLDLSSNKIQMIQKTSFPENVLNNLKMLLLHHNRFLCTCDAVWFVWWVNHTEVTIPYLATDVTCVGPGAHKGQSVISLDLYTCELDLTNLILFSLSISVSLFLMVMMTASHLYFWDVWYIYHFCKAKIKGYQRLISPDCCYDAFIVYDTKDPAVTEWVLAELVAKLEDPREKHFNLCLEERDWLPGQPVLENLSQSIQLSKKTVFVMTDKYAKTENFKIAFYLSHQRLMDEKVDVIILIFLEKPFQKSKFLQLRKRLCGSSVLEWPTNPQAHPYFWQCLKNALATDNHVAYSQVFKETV
Put plainly: TLR7 inhibition reporter assay (HEK-Blue, SEAP). To be noted: HEK-Blue cells overexpressing human TLR7, ligand gardiquimod 2.5 μM, 22 hour incubation. In short, it runs like this:
as §1

The target in a further assay is T3, human TLR8 (Homo sapiens, UniProt Q9NR97).
T3 construct: host or cells: HEK-Blue cells
T3 sequence (Q9NR97 27-1041): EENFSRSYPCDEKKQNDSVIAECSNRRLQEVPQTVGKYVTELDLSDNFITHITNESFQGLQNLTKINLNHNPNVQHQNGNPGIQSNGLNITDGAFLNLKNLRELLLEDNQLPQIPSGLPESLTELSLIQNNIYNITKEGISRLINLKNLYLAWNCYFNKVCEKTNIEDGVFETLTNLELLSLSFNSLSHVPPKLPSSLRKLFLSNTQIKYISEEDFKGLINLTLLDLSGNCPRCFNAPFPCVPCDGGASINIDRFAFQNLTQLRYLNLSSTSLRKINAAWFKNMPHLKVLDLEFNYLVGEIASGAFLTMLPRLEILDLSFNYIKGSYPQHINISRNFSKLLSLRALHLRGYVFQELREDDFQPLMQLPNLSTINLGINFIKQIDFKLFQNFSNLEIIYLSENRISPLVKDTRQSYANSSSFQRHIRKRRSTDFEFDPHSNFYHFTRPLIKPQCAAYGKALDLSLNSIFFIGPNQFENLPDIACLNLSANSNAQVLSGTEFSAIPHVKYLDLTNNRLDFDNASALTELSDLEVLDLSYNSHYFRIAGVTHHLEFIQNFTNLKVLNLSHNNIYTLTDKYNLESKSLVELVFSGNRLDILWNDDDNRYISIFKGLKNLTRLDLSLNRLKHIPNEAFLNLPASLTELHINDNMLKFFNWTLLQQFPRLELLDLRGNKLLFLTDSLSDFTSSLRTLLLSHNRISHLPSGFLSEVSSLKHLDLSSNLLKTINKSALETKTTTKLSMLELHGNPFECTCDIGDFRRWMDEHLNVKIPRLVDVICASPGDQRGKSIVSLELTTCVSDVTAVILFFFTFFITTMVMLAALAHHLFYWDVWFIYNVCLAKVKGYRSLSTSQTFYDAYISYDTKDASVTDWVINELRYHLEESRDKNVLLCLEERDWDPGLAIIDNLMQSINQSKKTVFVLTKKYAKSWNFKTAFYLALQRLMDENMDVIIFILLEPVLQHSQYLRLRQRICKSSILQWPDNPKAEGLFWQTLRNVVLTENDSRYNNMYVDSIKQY
In words: TLR8 inhibition reporter assay (HEK-Blue, SEAP). To be noted: HEK-Blue cells overexpressing human TLR8, ligand R848 14.25 μM, 22 hour incubation. An outline of the steps:
as §1

With `COc1ccc(-c2nc3c(C)cc(C4CCN([C@H]5C[C@@H]6CN(CC(C)C)C[C@@H]6C5)CC4)nc3n2C)cc1OC` [Example 37, 2-(3,4-dimethoxyphenyl)-5-(1-(2-isobutyloctahydrocyclopenta[c]pyrrol-5-yl)piperidin-4-yl)-3,7-dimethyl-3H-imidazo[4,5-b]pyridine], the IC50 at human TLR9 is 100 nM; against human TLR7, 1200 nM; against human TLR8, more than 50000 nM.
Turning to `COc1ccc(-c2nc3c(C)cc(C4CCN([C@H]5C[C@@H]6CN(CC7CC7)C[C@@H]6C5)CC4)nc3n2C)cc1OC` [Example 38, 5-(1-(2-(cyclopropylmethyl)octahydrocyclopenta[c]pyrol-5-yl)piperidin-4-yl)-2-(3,4-dimethoxyphenyl)-3,7-dimethyl-3H-imidazo[4,5-b]pyridine], the half-inhibitory concentration (IC50) is 80 nM on human TLR9, 740 nM against human TLR7 and more than 50000 nM at human TLR8.
As for `COc1ccc(-c2nc3c(C)cc(C4CCN([C@H]5C[C@@H]6CN(C7CCC7)C[C@@H]6C5)CC4)nc3n2C)cc1OC` [Example 39, 5-(1-(2-cyclobutyloctahydrocyclopenta[c]pyrrol-5-yl)piperidin-4-yl)-2-(3,4-dimethoxyphenyl)-3,7-dimethyl-3H-imidazo[4,5-b]pyridine], the IC50 at human TLR9 came to 130 nM; at human TLR7 it was 310 nM; on human TLR8, 24000 nM.
For `COc1ccc(-c2nc3c(C)cc(C4CCN([C@H]5C[C@@H]6CN(C7CCOCC7)C[C@@H]6C5)CC4)nc3n2C)cc1OC` [Example 40, 2-(3,4-dimethoxyphenyl)-3,7-dimethyl-5-(1-(2-(tetrahydro-2H-pyran-4-yl)octahydrocyclopenta[c]pyrrol-5-yl)piperidin-4-yl)-3H-imidazo[4,5-b]pyridine], in that order: 220 nM, 1300 nM and more than 50000 nM.
`COCCN1C[C@H]2C[C@H](N3CCC(c4cc(C)c5nc(-c6ccc(OC)c(OC)c6)n(C)c5n4)CC3)C[C@H]2C1` [Example 41, 2-(3,4-dimethoxyphenyl)-5-(1-((3aR,5s,6aS)-2-(2-methoxyethyl)octahydrocyclopenta[c]pyrrol-5-yl)piperidin-4-yl)-3,7-dimethyl-3H-imidazo[4,5-b]pyridine]: the concentration for half-maximal inhibition (IC50) on human TLR9 was 73 nM; on human TLR7, 480 nM; against human TLR8, more than 50000 nM.
For `COc1cc(-c2nc3c(C)cc(C4CCN([C@H]5C[C@@H]6CN(C7CCC7)C[C@@H]6C5)CC4)nc3n2C)cn2ncnc12` [Example 42, 5-(1-((3aR,5s,6aS)-2-cyclobutyloctahydrocyclopenta[c]pyrrol-5-yl)piperidin-4-yl)-2-(8-methoxy-[1,2,4]triazolo[1,5-a]pyridin-6-yl)-3,7-dimethyl-3H-imidazo[4,5-b]pyridine], in that order: 84 nM, 17000 nM and more than 50000 nM.
For `COc1cc(-c2nc3c(C)cc(C4CCN([C@H]5C[C@@H]6CN(CC7CC7)C[C@@H]6C5)CC4)nc3n2C)cn2ncnc12` [Example 43, 5-(1-((3aR,5s,6aS)-2-(cyclopropylmethyl)octahydrocyclopenta[c]pyrrol-5-yl)piperidin-4-yl)-2-(8-methoxy-[1,2,4]triazolo[1,5-a]pyridin-6-yl)-3,7-dimethyl-3H-imidazo[4,5-b]pyridine], in that order: 52 nM, 250 nM and more than 50000 nM.
`COc1cc(-c2nc3c(C)cc(C4CCN([C@H]5C[C@@H]6CN(C7CCOCC7)C[C@@H]6C5)CC4)nc3n2C)cn2ncnc12` [Example 44, 2-(8-methoxy-[1,2,4]triazolo[1,5-a]pyridin-6-yl)-3,7-dimethyl-5-(1-((3aR,5s,6aS)-2-(tetrahydro-2H-pyran-4-yl)octahydrocyclopenta[c]pyrrol-5-yl)piperidin-4-yl)-3H-imidazo[4,5-b]pyridine]: the IC50 against human TLR9 is 180 nM; against human TLR7 it was 4500 nM; at human TLR8 it was more than 50000 nM.
